Consider one compound from ChEMBL document CHEMBL6096675 (J Med Chem, 2025).

Data set [1] is described as follows: Plasma concentration in mouse xenografted with human H838 cells at 10 mg/kg, iv single dose measured after 168 hrs by LC-MS/MS analysis. The following applies: in vivo. Format: ADME, organism-based, NCI-H838. Background: A xenograft is tissue or cells of one species grown in another, often human tumour cells in immunodeficient mice.
Data set [2] is described as follows: Antiproliferative activity against human SMARCA4-deficient NCI-H1568 cells assessed as maximal inhibition of cell growth measured after 7 days by WST-8 assay relative to control. The class given is functional. The following applies: time 7 day. Background: Tetrazolium assays rely on reduction of a dye to a coloured formazan, in cell work by metabolically active cells.

Consider `Cc1ncsc1-c1ccc([C@H](CN2CCOCC2)NC(=O)[C@@H]2C[C@@H](O)CN2C(=O)[C@@H](n2cc([C@H]3CC[C@H](CN4CCC(c5ccc6c(c5)-n5c(nc(=O)c7c(Cl)cccc75)C65CCCCC5)CC4)CC3)nn2)C(C)(C)C)cc1`, for which, in data set [1], the Cp result is “Below_limit_of_detection”. Besides, the Imax in data set [2] is reported as 86%.
